≈ marks a conversion by molar mass, not a printed value. Read-outs that look alike come from different tables or passages of the source.

One experiment relates to Ps. aeruginosa RPL 11^+. In words: MIC, in vitro agar dilution assay, aerobic bacteria (Table II). The experiment is classed as cell-based. Particulars: Pseudomonas aeruginosa. For orientation: In agar dilution, organisms are placed on agar that contains the substance at set levels.
The test system of a further experiment is C. difficile Fox^r. In words: MIC, in vitro agar dilution assay, anaerobic bacteria (Table III). It counts as cell-based. To be noted: Clostridioides difficile.
Experiment [1] deals with Bacteriodes fragilis Metr^r, Pen^r. The experiment is described as above. To be noted: 10^6 CFU per spot, read-out: MIC. The experiment is classed as cell-based.
The subject of experiment [2] is Bifidobacterium dentium Fox^r. Described as above. To be noted: Bifidobacterium dentium. The experiment is classed as cell-based.
Experiment [3] has as its system Fusobacterium mortiferum Fox^r. The experiment is described as above. Particulars: 10^6 CFU per spot, read-out: MIC. It counts as cell-based.
Another experiment concerns S. aureus Gm^R Meth^R. In words: MIC, in vitro agar dilution assay, aerobic bacteria (Table II). It counts as cell-based. To be noted: Staphylococcus aureus.
For experiment [4], the system named is B. distasonis Pen^r Fox^r. The experiment in a line: MIC, in vitro agar dilution assay, anaerobic bacteria (Table III). The experiment is classed as cell-based. To be noted: Parabacteroides distasonis, 10^6 CFU per spot, read-out: MIC.
A further experiment relates to C. ramosum. Described as above. The experiment is classed as cell-based. Particulars: Thomasclavelia ramosa, 10^6 CFU per spot, read-out: MIC.
For another experiment, the system named is Veillonella alcalescens. The description is as above. The experiment is classed as cell-based. To be noted: Veillonella parvula, 10^6 CFU per spot, read-out: MIC.
For another experiment, the system named is B. fragilis Pen^r. Described as above. It counts as cell-based. Particulars: Bacteroides fragilis, 10^6 CFU per spot, read-out: MIC.
A further experiment deals with B. ovatus Pen^r. Described as above. It counts as cell-based. To be noted: Bacteroides ovatus, 10^6 CFU per spot, read-out: MIC.
Experiment [5] deals with Ps. aeruginosa. The experiment in a line: MIC, in vitro agar dilution assay, aerobic bacteria (Table II). The experiment is classed as cell-based. To be noted: Pseudomonas aeruginosa.
Experiment [6] deals with C. difficile Clind^r, Fox^r. The experiment in a line: MIC, in vitro agar dilution assay, anaerobic bacteria (Table III). It counts as cell-based. Particulars: Clostridioides difficile, 10^6 CFU per spot, read-out: MIC.
Experiment [7] relates to B. thetaiotaomicron Clind^r. The experiment is described as above. It counts as cell-based. Particulars: Bacteroides thetaiotaomicron, 10^6 CFU per spot, read-out: MIC.
Experiment [8] relates to B. distasonis Pen^r Fox^r Clind^r. The experiment is described as above. It counts as cell-based. To be noted: Parabacteroides distasonis, 10^6 CFU per spot, read-out: MIC.
In the next experiment the test system is E. coli DC 2. The experiment in a line: MIC, in vitro agar dilution assay, aerobic bacteria (Table II). It counts as cell-based. To be noted: Escherichia coli, DC2.
A further experiment concerns K. pneumoniae Kl^+. Described as above. It counts as cell-based. To be noted: Klebsiella pneumoniae, 10^6 CFU per spot, read-out: MIC.
Experiment [9] relates to B. fragilis NCCLS control strain. The experiment in a line: MIC, in vitro agar dilution assay, anaerobic bacteria (Table III). It counts as cell-based. Particulars: Bacteroides fragilis, 10^6 CFU per spot, read-out: MIC.
In a further experiment the test system is E. coli TEM 2^+ DC 2. In words: MIC, in vitro agar dilution assay, aerobic bacteria (Table II). Particulars: Escherichia coli. The experiment is classed as cell-based.
Another experiment relates to S. aureus. The experiment is described as above. It counts as cell-based. Particulars: Staphylococcus aureus, 10^6 CFU per spot, read-out: MIC. From the text:
(§1) Further evaluations of the antibacterial spectrum of difficidin and oxydifficidin were undertaken, especially as compared to the antibacterial spectrum of the valuable antibiotic cefoxitin, which is well known for its wide spectrum of antibacterial activity. An in vitro agar dilution assay was used, inoculum 10^6 CFU per spot. Table II below illustrates the results obtained for various aerobic bacteria, and Table III illustrates the results obtained for various anaerobic bacteria.

For a further experiment, the system named is E. coli. The description is as above. The experiment is classed as cell-based. Particulars: Escherichia coli, 10^6 CFU per spot, read-out: MIC.
Text: as §1

A further experiment has as its system Strep. faecalis. The experiment is described as above. The experiment is classed as cell-based. Particulars: Enterococcus faecalis, 10^6 CFU per spot, read-out: MIC.
Text: as §1

Another experiment has as its system Prot. vulgaris. Described as above. It counts as cell-based. To be noted: Proteus vulgaris, 10^6 CFU per spot, read-out: MIC.
For the next experiment, the system named is Prot. morganii Sm^R. Described as above. It counts as cell-based. Particulars: Morganella morganii.
For another experiment, the system named is Sal. typhimurium. The experiment is described as above. Particulars: Salmonella enterica, 10^6 CFU per spot, read-out: MIC. The experiment is classed as cell-based.
The subject of another experiment is Prot. mirabilis Gm^R. Described as above. The experiment is classed as cell-based. Particulars: Proteus mirabilis, 10^6 CFU per spot, read-out: MIC.
Experiment [10] deals with Clostridium perfringens NCCLS control strain. The experiment in a line: microbe, parasite or virus in culture. To be noted: Clostridium perfringens. It counts as cell-based.
A further experiment has as its system Actinomyces naeslundii. In words: MIC, in vitro agar dilution assay, anaerobic bacteria (Table III). The experiment is classed as cell-based. To be noted: 10^6 CFU per spot, read-out: MIC.
The test system of the next experiment is Ser. marcescens. In words: MIC, in vitro agar dilution assay, aerobic bacteria (Table II). It counts as cell-based. To be noted: Serratia marcescens, 10^6 CFU per spot, read-out: MIC.
For experiment [11], the system named is B. thetaiotaomicron Clind^r, NCCLS control strain. In words: MIC, in vitro agar dilution assay, anaerobic bacteria (Table III). It counts as cell-based. Particulars: Bacteroides thetaiotaomicron, 10^6 CFU per spot, read-out: MIC.
A further experiment has as its system Eubacterium limosum. The description is as above. The experiment is classed as cell-based. To be noted: 10^6 CFU per spot, read-out: MIC.
A further experiment has as its system Ent. aerogenes. The experiment in a line: MIC, in vitro agar dilution assay, aerobic bacteria (Table II). To be noted: Klebsiella aerogenes. The experiment is classed as cell-based.
For a further experiment, the system named is Propionibacterium acnes. In words: MIC, in vitro agar dilution assay, anaerobic bacteria (Table III). It counts as cell-based. Particulars: Cutibacterium acnes, 10^6 CFU per spot, read-out: MIC.
The subject of the next experiment is E. coli TEM 2^+. In words: MIC, in vitro agar dilution assay, aerobic bacteria (Table II). It counts as cell-based. To be noted: Escherichia coli.
The subject of experiment [12] is B. fragilis Clind^r Fox^r Tet^r. The experiment in a line: MIC, in vitro agar dilution assay, anaerobic bacteria (Table III). It counts as cell-based. To be noted: Bacteroides fragilis, 10^6 CFU per spot, read-out: MIC.
For another experiment, the system named is Ent. cloacae P99^+. In words: MIC, in vitro agar dilution assay, aerobic bacteria (Table II). It counts as cell-based. Particulars: Enterobacter cloacae.
Experiment [13] concerns Ps. aeruginosa. Described as above. The experiment is classed as cell-based. To be noted: Pseudomonas aeruginosa. The source holds these as a separate data set.
Experiment [14] deals with Peptostreptococcus anaerobius. The experiment in a line: MIC, in vitro agar dilution assay, anaerobic bacteria (Table III). It counts as cell-based. Particulars: 10^6 CFU per spot, read-out: MIC.
Another experiment relates to Ent. cloacae P99^-. In words: MIC, in vitro agar dilution assay, aerobic bacteria (Table II). It counts as cell-based. Particulars: Enterobacter cloacae.
Experiment [15] concerns Klebsiella pneumoniae MB 4005. The experiment in a line: standard mouse protection test, experimental systemic infection. It counts as in vivo, CD1 female mice. To be noted: Klebsiella pneumoniae, MB4005, ip, 168 h, × 2 i.p. doses (immediately after infection and 6 hours later), 7 days. On the procedure: The antibacterial efficacy of difficidin and its derivatives was further determined in standard mouse protection tests. An experimental systemic infection was produced in CD1 female mice (Charles River Breeding Laboratories, Wilmington, MA) by the intraperitoneal injection of a suitably diluted broth culture of Klebsiella pneumoniae MB 4005. The test antibacterial compounds and the control drug (streptomycin) were administered parenterally (intraperitoneally) immediately after infection and again 6 hours later. At least 4 fourfold dilutions of each agent were tested. There were 5 mice at each dose level. […] Under the conditions of the test, all infected untreated mice died within 48 hours.
Mice were protected by the administration of the test antibacterial compounds or streptomycin at the median effective doses shown in Table IV below.

Regarding `CO[C@@]1(NC(=O)Cc2cccs2)C(=O)N2C(C(=O)O)=C(COC(N)=O)CS[C@@H]21` [Cefoxitin, cefoxitin, reference compound], the MIC against Ps. aeruginosa RPL 11^+ was more than 128 µg/mL; with C. difficile Fox^r it was 128 µg/mL (≈ 299 µM); in experiment [1], 2 µg/mL (≈ 4.68 µM); in experiment [2], 4 µg/mL (≈ 9.36 µM); in experiment [3] it was 16 µg/mL (≈ 37.4 µM); against S. aureus Gm^R Meth^R it was more than 128 µg/mL. The MIC is 64 µg/mL (≈ 150 µM) in experiment [4]; 4 µg/mL (≈ 9.36 µM) in the experiment with C. ramosum; 0.5 µg/mL (≈ 1.17 µM) in the experiment with Veillonella alcalescens; 8 µg/mL (≈ 18.7 µM) in the experiment on B. fragilis Pen^r; 8 µg/mL (≈ 18.7 µM) in the experiment on B. ovatus Pen^r; more than 128 µg/mL against Ps. aeruginosa [5]. The MIC in experiment [6] stood at 64 µg/mL (≈ 150 µM); in [7], 16 µg/mL (≈ 37.4 µM); in [8], 16 µg/mL (≈ 37.4 µM); with E. coli DC 2 it was 1 µg/mL (≈ 2.34 µM); in the experiment on K. pneumoniae Kl^+, 4 µg/mL (≈ 9.36 µM); in experiment [9] it was 4 µg/mL (≈ 9.36 µM). In addition, the MIC against E. coli TEM 2^+ DC 2 was 1 µg/mL (≈ 2.34 µM); in the experiment on S. aureus (first unmarked strain), 2 µg/mL (≈ 4.68 µM); in the experiment with S. aureus (second unmarked strain) it was 2 µg/mL (≈ 4.68 µM); in the experiment on E. coli it was more than 128 µg/mL; in the experiment on Strep. faecalis, more than 128 µg/mL; in the experiment with Prot. vulgaris it was 16 µg/mL (≈ 37.4 µM). Further, the MIC in the experiment with Prot. morganii Sm^R stood at 16 µg/mL (≈ 37.4 µM); with Sal. typhimurium it was 8 µg/mL (≈ 18.7 µM); with Prot. mirabilis Gm^R, 32 µg/mL (≈ 74.9 µM); in experiment [10] it was 0.5 µg/mL (≈ 1.17 µM); in the experiment on Actinomyces naeslundii, 0.015 µg/mL (≈ 0.0351 µM); with Ser. marcescens it was 64 µg/mL (≈ 150 µM). Moreover, the MIC is 16 µg/mL (≈ 37.4 µM) in [11]; 0.25 µg/mL (≈ 0.585 µM) in the experiment with Eubacterium limosum; more than 128 µg/mL in the experiment with Ent. aerogenes; not above 0.008 µg/mL in the experiment with Propionibacterium acnes; 4 µg/mL (≈ 9.36 µM) in the experiment on E. coli TEM 2^+; 32 µg/mL (≈ 74.9 µM) in experiment [12]. Moreover, the MIC in the experiment with Ent. cloacae P99^+ was more than 128 µg/mL; in the experiment with Ps. aeruginosa [13] it was more than 128 µg/mL; in experiment [14], not above 0.008 µg/mL; in the experiment with Ent. cloacae P99^-, 16 µg/mL (≈ 37.4 µM).

On to `[H]/N=C(/N)N[C@H]1[C@H](O)[C@@H](O)[C@H](O[C@@H]2O[C@@H](C)[C@](O)(C=O)[C@H]2O[C@@H]2O[C@@H](CO)[C@H](O)[C@@H](O)[C@@H]2NC)[C@@H](N/C(N)=N\[H])[C@@H]1O` [Streptomycin, streptomycin, reference compound], for which the results for the ED50 in experiment [15] (Test No. 1), in experiment [15] (Test No. 2) and in experiment [15] (Test No. 3) were 0.38 mg/kg, 1.41 mg/kg and 0.38 mg/kg, respectively.

What is called ED50 is the midpoint of the dose-response relation. High values mean weaker potency, low ones greater potency.

The values are drawn from patent publication US4545991A, “Difficidin and derivative antibacterials” (Merck & Co., Inc., priority 1983, dated 1985).
